For one data set, the target named is DPP IV (Homo sapiens, UniProt P27487). As to the kind of experiment: Stability against DPP IV enzyme. The class given is in vitro ADME. As to conditions: 37° C.; for % degradation of peptidomimetics in 24 h when incubated with DPP-IV enzyme: 2 μM peptidomimetic. How it is done:
(§1) Reactions were terminated by the addition of TFA/H2O (15 mL, 10% (v/v)). […] The column was equilibrated with TFA/H20, at a flow rate of 1 mL/min.

Data set [1] can be described thus: Stability in human plasma. Format: in vitro ADME. To be noted: 2 μM peptidomimetic, pooled human plasma, 37° C. On the procedure: as §1
Data set [2] can be described thus: Stability in liver microsomes. To be noted: 2 μM peptidomimetic, human liver microsomes, 37° C.; for half-life at 2 μM: pH 7.8, read-out: half-life (t1/2) when incubated with liver microsomes. The class given is in vitro ADME. How it is done:
as §1
Background: Liver microsomes are a subcellular fraction often used to study metabolism.

The subject of data set [3] is RIN5F (Rat Insulinoma) cells. As to the kind of experiment: In vitro glucose-dependent insulin secretion (RIN5F cell assay screening protocol). As to conditions: 16.7 mM glucose load. Format: cell-based.
A further data set concerns the target T1, Human GLP-1 receptor (Homo sapiens, UniProt P43220).
T1 construct: The full-length cDNA was cloned in pcDNA3.1(+); expressed in transfected cells
As to the kind of experiment: In vitro Human GLP-1 R agonist activity (cyclic AMP determination) in CHO/human GLP1R cells. The class given is cell-based.

Data set [4] is described as follows: Stability in simulated gastric fluid. Format: in vitro ADME. As to conditions: 2 μM peptidomimetic, simulated gastric fluid pH 1.5, 37° C.; for half-life at 2 μM: read-out: half-life (t1/2) when incubated with simulated gastric fluid. How it is done:
as §1

A further data set addresses T2, human glucagon receptor (Homo sapiens, UniProt P47871).
T2 construct: The full-length cDNA was cloned in pcDNA3.1 (Invitrogen); expressed in transfected cells
As to the kind of experiment: In vitro human glucagon antagonist activity (inhibition of cAMP production) in CHO/human glucagon R cells. Format: cell-based. To be noted: with saturated concentration of glucagon peptide. A general note: Changes in cAMP serve as a functional read-out for many G protein-coupled receptors.

Data set [5] can be described thus: Stability in simulated intestinal fluid. As to conditions: 2 μM peptidomimetic, simulated intestinal fluid pH 7.5, 37° C.; for half-life at 2 μM: read-out: half-life (t1/2) when incubated with simulated intestinal fluid. The class given is in vitro ADME. On the procedure:
as §1

T2 sequence (P47871 26-477): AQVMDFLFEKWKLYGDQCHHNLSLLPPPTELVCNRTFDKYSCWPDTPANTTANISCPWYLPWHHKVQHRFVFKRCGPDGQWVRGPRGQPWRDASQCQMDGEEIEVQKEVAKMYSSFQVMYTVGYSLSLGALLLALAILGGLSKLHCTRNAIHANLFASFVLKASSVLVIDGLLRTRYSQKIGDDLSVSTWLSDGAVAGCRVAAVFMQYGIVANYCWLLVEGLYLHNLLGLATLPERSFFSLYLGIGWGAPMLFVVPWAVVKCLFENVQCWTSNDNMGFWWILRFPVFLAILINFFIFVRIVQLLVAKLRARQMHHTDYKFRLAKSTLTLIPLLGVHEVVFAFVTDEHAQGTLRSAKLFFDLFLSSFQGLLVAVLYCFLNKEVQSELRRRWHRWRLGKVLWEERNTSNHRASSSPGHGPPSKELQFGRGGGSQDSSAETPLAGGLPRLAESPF
Chain of DPP IV (P27487 whole entry, species assumed): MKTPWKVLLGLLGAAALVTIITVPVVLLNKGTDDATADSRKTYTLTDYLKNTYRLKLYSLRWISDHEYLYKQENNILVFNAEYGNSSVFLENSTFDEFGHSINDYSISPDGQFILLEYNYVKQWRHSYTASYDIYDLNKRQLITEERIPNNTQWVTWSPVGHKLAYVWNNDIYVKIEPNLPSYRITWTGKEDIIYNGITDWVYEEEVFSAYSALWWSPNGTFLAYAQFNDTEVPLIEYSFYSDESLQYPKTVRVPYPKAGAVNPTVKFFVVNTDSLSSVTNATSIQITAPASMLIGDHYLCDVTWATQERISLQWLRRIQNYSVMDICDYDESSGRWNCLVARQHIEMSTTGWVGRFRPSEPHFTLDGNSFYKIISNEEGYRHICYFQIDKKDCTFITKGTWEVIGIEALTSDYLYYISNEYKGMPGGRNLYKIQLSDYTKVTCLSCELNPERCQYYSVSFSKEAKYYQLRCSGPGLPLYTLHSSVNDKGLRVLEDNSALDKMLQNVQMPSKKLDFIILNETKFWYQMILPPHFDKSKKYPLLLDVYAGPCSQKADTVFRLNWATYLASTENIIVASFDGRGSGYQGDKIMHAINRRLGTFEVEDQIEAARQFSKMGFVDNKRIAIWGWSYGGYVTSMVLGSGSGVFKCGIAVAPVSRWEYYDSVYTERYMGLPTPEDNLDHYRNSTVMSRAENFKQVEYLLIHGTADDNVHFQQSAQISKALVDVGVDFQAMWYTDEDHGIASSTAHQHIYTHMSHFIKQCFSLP
T1 sequence (P43220 24-463): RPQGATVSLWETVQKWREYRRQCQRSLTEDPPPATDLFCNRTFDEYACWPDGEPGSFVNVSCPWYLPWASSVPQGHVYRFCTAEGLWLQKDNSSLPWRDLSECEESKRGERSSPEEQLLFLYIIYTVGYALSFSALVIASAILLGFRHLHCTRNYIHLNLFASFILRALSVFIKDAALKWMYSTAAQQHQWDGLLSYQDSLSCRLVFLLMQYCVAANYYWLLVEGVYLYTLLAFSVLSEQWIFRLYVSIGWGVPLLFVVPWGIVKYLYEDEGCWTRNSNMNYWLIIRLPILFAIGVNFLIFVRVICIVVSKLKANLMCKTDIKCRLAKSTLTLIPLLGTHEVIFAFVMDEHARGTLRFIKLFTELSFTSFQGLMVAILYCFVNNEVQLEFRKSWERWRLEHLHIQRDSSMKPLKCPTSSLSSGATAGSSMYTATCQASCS

Regarding `CCc1cc(OC)ccc1-c1ccc(CC(NC(=O)[C@H](CC(=O)O)NC(=O)[C@H](CO)NC(=O)[C@@H](NC(=O)[C@H](Cc2ccccc2)NC(=O)[C@@H](NC(=O)CNC(=O)[C@H](CCC(N)=O)NC(=O)[C@H](CO)NC(=O)[C@@H](N)Cc2c[nH]cn2)[C@@H](C)O)[C@@H](C)O)C(=O)NC(CCCc2ccccc2F)C(N)=O)cc1` (single isomer, unassigned) [compound 45], the “% degradation of peptidomimetics in 24 h when incubated with DPP-IV enzyme” value (“% degradation … with DPP-IV enzyme” below) at DPP IV amounted to 77%. In data set [1], the “half-life (t1/2) when incubated with human plasma” value (“half-life (t1/2) when incubated” for short) was “(9) h”. For the same compound, the “% degradation of peptidomimetics in 24 h when incubated with human plasma” value (“% degradation … with human plasma” below) in data set [1] amounted to 80%. Further, in data set [2], the “% degradation of peptidomimetics in 24 h when incubated with liver microsomes” value (“% degradation … with liver microsomes” below) came to 100%. The half-life at 2 μM in data set [2], in data set [4] and in data set [5] was 30 min throughout. Besides, the Insulin secretion is 11.8 ± 0.50 pg/µg/h in data set [3] (0.1 nM test compd.), 14.9 ± 0.11 pg/µg/h in data set [3] (1 nM test compd.) and 27.9 ± 0.31 pg/µg/h in data set [3] (10 nM test compd.). Also, the “Human GLP-1 R activity (cAMP release), % activity with respect to control” value on Human GLP-1 receptor (1 nM test compound) was found to be 51 ± 0.03%; on Human GLP-1 receptor (10 nM test compound), 86 ± 0.40%; at Human GLP-1 receptor (100 nM test compound), 91 ± 0.21%; at Human GLP-1 receptor (1 μM test compound), 99 ± 0.32%; at Human GLP-1 receptor (10 μM test compound) it was 99 ± 0.21%. For the same compound, the “% degradation of peptidomimetics in 24 h when incubated with simulated gastric fluid” value (“% degradation … with simulated gastric fluid” below) in data set [4] is 100%. The “Human Glucagon receptor antagonistic activity shown as inhibition of cAMP production of Glucagon peptide” value on human glucagon receptor (1 nM test compound) was 15 ± 0.11 pmol/ml/μg prt; on human glucagon receptor (10 nM test compound), 12 ± 0.13 pmol/ml/μg prt; on human glucagon receptor (100 nM test compound), 8 ± 0.09 pmol/ml/μg prt; at human glucagon receptor (1 μM test compound), 4 ± 0.01 pmol/ml/μg prt; on human glucagon receptor (10 μM test compound), 2 ± 0.08 pmol/ml/μg prt. The “% degradation of peptidomimetics in 24 h when incubated with simulated intestinal fluid” value (shortened to “% degradation … with simulated intestinal fluid”) in data set [5] is recorded as 100%.

Turning to `CCc1cc(OC)ccc1-c1ccc(CC(NC(=O)[C@H](CC(=O)O)NC(=O)[C@H](CO)NC(=O)[C@@H](NC(=O)[C@H](Cc2ccccc2)NC(=O)[C@@H](NC(=O)CNC(=O)C(CCC#N)NC(=O)C(C)(C)NC(=O)[C@@H](N)Cc2c[nH]cn2)[C@@H](C)O)[C@@H](C)O)C(=O)NC(CCCc2ccccc2F)C(N)=O)cc1` (single isomer, unassigned) [compound 77], the “% degradation … with DPP-IV enzyme” value at DPP IV is listed as 74%. In data set [1], the “half-life (t1/2) when incubated” value is “(9) h”. The “% degradation … with human plasma” value in data set [1] turned out to be 75%. The “% degradation … with liver microsomes” value in data set [2] is reported as 100%. For the same compound, the half-life at 2 μM in data set [2], in data set [4] and in data set [5] was 30 min in each case. The Insulin secretion is 15.6 ± 0.33 pg/µg/h in data set [3] (0.1 nM test compd.), 21.8 ± 0.16 pg/µg/h in data set [3] (1 nM test compd.) and 35.6 ± 0.26 pg/µg/h in data set [3] (10 nM test compd.). In addition, the “Human GLP-1 R activity (cAMP release), % activity with respect to control” value turned out to be 40 ± 0.09% on Human GLP-1 receptor (1 nM test compound); 81 ± 0.07% on Human GLP-1 receptor (10 nM test compound); 87 ± 0.04% on Human GLP-1 receptor (100 nM test compound); 95 ± 0.01% on Human GLP-1 receptor (1 μM test compound); 98 ± 0.08% on Human GLP-1 receptor (10 μM test compound). Further, the “% degradation … with simulated gastric fluid” value in data set [4] is listed as 100%. Besides, the “Human Glucagon receptor antagonistic activity shown as inhibition of cAMP production of Glucagon peptide” value was determined as 20 ± 0.06 pmol/ml/μg prt at human glucagon receptor (1 nM test compound); 18 ± 0.09 pmol/ml/μg prt on human glucagon receptor (10 nM test compound); 16 ± 0.01 pmol/ml/μg prt on human glucagon receptor (100 nM test compound); 14 ± 0.03 pmol/ml/μg prt on human glucagon receptor (1 μM test compound); 12 ± 0.01 pmol/ml/μg prt on human glucagon receptor (10 μM test compound). In addition, the “% degradation … with simulated intestinal fluid” value in data set [5] is 100%.

With `CCc1cc(OC)ccc1-c1ccc(CC(NC(=O)[C@H](CC(=O)O)NC(=O)[C@H](CO)NC(=O)[C@@H](NC(=O)[C@H](Cc2ccccc2)NC(=O)[C@@H](NC(=O)CNC(=O)C(CCC#N)NC(=O)C(C)(C)NC(=O)[C@@H](N)Cc2c[nH]cn2)[C@@H](C)O)[C@@H](C)O)C(=O)NC(CCCc2ccccc2C(F)(F)F)C(N)=O)cc1` (single isomer, unassigned) [compound 79], the “% degradation … with DPP-IV enzyme” value at DPP IV stood at 86%. For the same compound, the “half-life (t1/2) when incubated” value in data set [1] was “(9) h”. For the same compound, in data set [1], the “% degradation … with human plasma” value was 70%. For the same compound, the “% degradation … with liver microsomes” value in data set [2] is 100%. Moreover, the half-life at 2 μM in data set [2], in data set [4] and in data set [5] was 30 min each time. Also, the Insulin secretion in data set [3] (0.1 nM test compd.) was determined as 16.5 ± 0.12 pg/µg/h; in data set [3] (1 nM test compd.), 22.7 ± 0.17 pg/µg/h; in data set [3] (10 nM test compd.) it was 36.5 ± 0.05 pg/µg/h. Further, the “Human GLP-1 R activity (cAMP release), % activity with respect to control” value on Human GLP-1 receptor (1 nM test compound) is reported as 62 ± 0.11%; on Human GLP-1 receptor (10 nM test compound), 94 ± 0.09%; on Human GLP-1 receptor (100 nM test compound), 99 ± 0.06%; on Human GLP-1 receptor (1 μM test compound) it was 99 ± 0.14%; at Human GLP-1 receptor (10 μM test compound), 99 ± 0.19%. In addition, the “% degradation … with simulated gastric fluid” value in data set [4] is 100%. Moreover, the “Human Glucagon receptor antagonistic activity shown as inhibition of cAMP production of Glucagon peptide” value at human glucagon receptor (1 nM test compound) is recorded as 6 ± 0.02 pmol/ml/μg prt; on human glucagon receptor (10 nM test compound) it was 5 ± 0.03 pmol/ml/μg prt; at human glucagon receptor (100 nM test compound), 2 ± 0.61 pmol/ml/μg prt; on human glucagon receptor (1 μM test compound), 0 pmol/ml/μg prt; at human glucagon receptor (10 μM test compound) it was 0 pmol/ml/μg prt. In data set [5], the “% degradation … with simulated intestinal fluid” value is 100%.

Take `CCc1cc(OC)ccc1-c1ccc(CC(NC(=O)[C@H](CC(=O)O)NC(=O)[C@H](CO)NC(=O)[C@@H](NC(=O)[C@H](Cc2ccccc2)NC(=O)[C@@H](NC(=O)CNC(=O)C(CCC#N)NC(=O)C(C)(C)NC(=O)[C@@H](N)Cc2c[nH]cn2)[C@@H](C)O)[C@@H](C)O)C(=O)NC(CCCc2ccc(OC)cc2Cl)C(N)=O)cc1` (single isomer, unassigned) [compound 84]: the “% degradation … with DPP-IV enzyme” value on DPP IV came to 00%. Further, the half-life at 2 μM was over 1440 min at DPP IV (DPP IV enzyme, pH 7.8, 2 μM peptidomimetic, read-out: half-life (t1/2) when incubated with DPP-IV enzyme); over 1440 min in data set [1] (pH 7.8, read-out: half-life (t1/2) when incubated with human plasma); 120 min in data set [2]; 240 min in data set [4]; over 1440 min in data set [5]. In data set [1], the “% degradation … with human plasma” value was 00%. In addition, the “% degradation … with liver microsomes” value in data set [2] turned out to be 85%. The figures for the Insulin secretion in data set [3] (0.1 nM test compd.), in data set [3] (1 nM test compd.) and in data set [3] (10 nM test compd.) were 12.1 ± 0.42 pg/µg/h, 14.6 ± 0.41 pg/µg/h and 27.8 ± 0.46 pg/µg/h, respectively. For the same compound, the “Human GLP-1 R activity (cAMP release), % activity with respect to control” value at Human GLP-1 receptor (1 nM test compound) is 38 ± 0.11%; on Human GLP-1 receptor (10 nM test compound) it was 77 ± 0.16%; at Human GLP-1 receptor (100 nM test compound), 85 ± 0.11%; at Human GLP-1 receptor (1 μM test compound), 94 ± 0.08%; on Human GLP-1 receptor (10 μM test compound), 97 ± 0.05%. Besides, in data set [4], the “% degradation … with simulated gastric fluid” value is 45%. Besides, the “Human Glucagon receptor antagonistic activity shown as inhibition of cAMP production of Glucagon peptide” value is 4 ± 0.01 pmol/ml/μg prt on human glucagon receptor (1 nM test compound); 2 ± 0.17 pmol/ml/μg prt on human glucagon receptor (10 nM test compound); 0 pmol/ml/μg prt on human glucagon receptor (100 nM test compound); 0 pmol/ml/μg prt at human glucagon receptor (1 μM test compound); 0 pmol/ml/μg prt on human glucagon receptor (10 μM test compound). Also, the “% degradation … with simulated intestinal fluid” value in data set [5] is given as 00%.

Source of the values: patent US8883963B2 (Cadila Healthcare Limited, priority 2007, dated 2014).
